For 60 compounds, IC50 results are on record in US20230279020A9, “CARM1 INHIBITORS AND USES THEREOF” (Epizyme, Inc., priority 2013, published 2023).

The experiment deals with Human CARM1 (PRMT4) (Homo sapiens (Human), UniProt Q86X55). The experiment is described as follows: CARM1 enzyme assay on peptide substrate (3H-SAM Flashplate). To be noted: Biochemical potencies, classification codes; read-out: Biochem IC50.
Human CARM1 (PRMT4), sequence (Q86X55 other isoform, or with tags, fused parts or gaps isoform Q86X55-1): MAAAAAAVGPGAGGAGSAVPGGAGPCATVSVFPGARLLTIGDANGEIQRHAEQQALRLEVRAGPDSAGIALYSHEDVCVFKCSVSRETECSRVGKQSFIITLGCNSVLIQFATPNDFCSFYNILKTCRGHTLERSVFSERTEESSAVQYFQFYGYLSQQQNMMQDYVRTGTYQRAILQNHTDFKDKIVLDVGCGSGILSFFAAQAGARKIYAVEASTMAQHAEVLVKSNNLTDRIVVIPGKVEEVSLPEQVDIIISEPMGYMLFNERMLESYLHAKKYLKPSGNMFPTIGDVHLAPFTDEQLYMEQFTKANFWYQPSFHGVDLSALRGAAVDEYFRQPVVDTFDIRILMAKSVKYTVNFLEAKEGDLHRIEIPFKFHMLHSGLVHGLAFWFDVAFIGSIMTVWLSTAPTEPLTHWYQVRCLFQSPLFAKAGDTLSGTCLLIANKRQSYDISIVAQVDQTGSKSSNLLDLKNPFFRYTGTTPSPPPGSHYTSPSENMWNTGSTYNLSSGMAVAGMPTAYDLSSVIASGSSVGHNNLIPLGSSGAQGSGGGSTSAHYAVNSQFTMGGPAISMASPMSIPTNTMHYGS
For the compound `CNCC(O)COc1cccc(-c2nc(-c3c(C)noc3C)c(C)c(N3C[C@@H](C)O[C@@H](C)C3)n2)c1` (stereo partly drawn) [Example 164-1a], the IC50 (in general, the concentration at which inhibition is half-maximal) is under 100 nM.

Consider `CNC[C@@H](O)COc1ccc(F)c(-c2nc(-c3c(C)noc3C)c(C)c(N3Cc4cc(F)cnc4C3)n2)c1` [Example 164-3], for which the IC50 is under 100 nM.

On to `CNCC(O)COc1cccc(-c2nc(-c3c(C)noc3C)cc(N3CCN(n4c(C)nnc4C)CC3)n2)c1` (stereo not drawn) [Example 165-1a], for which the IC50 was under 100 nM.

`CNCC(O)COc1cccc(-c2nc(-c3c(C)noc3C)cc(N3CCN(C4CCOCC4)CC3)n2)c1` (stereo not drawn) [Example 166-1a]: the IC50 is under 100 nM.

As to `CCS(=O)(=O)N1CCCC(CNc2nc(-c3cccc(OCC(O)CNC)c3)nc(-c3c(C)noc3C)c2C)C1` (stereo not drawn) [Example 167-1a], the IC50 was under 100 nM.

As for `CNC[C@@H](O)COc1ccc(Cl)c(-c2nc(N[C@@H]3CCN(C4CC4)C[C@@H]3F)c(C)c(-c3c(C)noc3C)n2)c1` [Example 167-3], the concentration for half-maximal inhibition (IC50) was under 100 nM.

For the compound `CCS(=O)(=O)N1CCC(Nc2nc(-c3cccc(OCC(O)CNC)c3)nc(-c3c(C)noc3C)c2C)CC1` (stereo not drawn) [Example 168-1a], the IC50 is under 100 nM.

Regarding `CNC[C@@H](O)COc1ccc(Cl)c(-c2nc(-c3c(C)noc3C)c(Cl)c(N3Cc4cccnc4C3)n2)c1` [Example 168-3], the concentration for half-maximal inhibition (IC50) was under 100 nM.

On to `CNC[C@H](O)COc1cccc(-c2nc(NC3CCN(C(=O)OC)CC3)c(C)c(-c3c(C)noc3C)n2)c1` [Example 169-1a], for which the IC50 was under 100 nM.

On to `CNC[C@@H](O)COc1ccc(Cl)c(-c2nc(N[C@H]3CCN(C(=O)OC)[C@@H](C)C3)c(C)c(-c3c(C)noc3C)n2)c1` [Example 169-3], for which the IC50 is under 100 nM.

In the case of `CNC[C@@H](O)COc1cccc(-c2nc(NC3CCN(C(=O)OC)CC3)c(C)c(-c3c(C)noc3C)n2)c1` [Example 170-1a], the IC50 is under 100 nM.

In the case of `CNC[C@@H](O)COc1ccc(Cl)c(-c2nc(N[C@H]3CCN(C4CC4)[C@@H](C)C3)c(C)c(-c3c(C)noc3C)n2)c1` [Example 170-3], the half-maximal inhibitory concentration (IC50) is under 100 nM.

`CNCC(O)COc1cccc(-c2nc(NCC3CN(C)CCO3)c(C)c(-c3c(C)noc3C)n2)c1` (stereo not drawn) [Example 171-1a]: the IC50 is under 100 nM.

On to `Cc1noc(C)c1-c1nc(-c2cc(OC[C@H](O)CN(C)C)ccc2Cl)nc(N[C@H]2CCN(C3CC3)[C@@H](C)C2)c1C` [Example 171-3], for which the IC50 was under 100 nM.

Regarding `CCOC(=O)N1CCC(N(C)c2cc(-c3c(C)noc3C)nc(-c3cccc(OCC(O)CNC)c3)n2)CC1` (stereo not drawn) [Example 172-1a], the IC50 is under 100 nM.

Consider `CNC[C@@H](O)COc1ccc(Cl)c(-c2nc(N[C@H]3C[C@@H](C)O[C@@H](C)C3)c(C)c(-c3c(C)noc3C)n2)c1` [Example 172-3], for which the IC50 is under 100 nM.

As to `CNC[C@@H](O)COc1ccc(Cl)c(-c2nc(N[C@H]3C[C@@H](C)O[C@@H](C)C3)c(Cl)c(-c3c(C)noc3C)n2)c1` [Example 173-3], the IC50 is under 100 nM.

Turning to `CNCC(O)COc1cccc(-c2nc(-c3c(C)noc3C)cc(N3CCN(CC(F)F)[C@H](C)C3)n2)c1` (stereo partly drawn) [Example 174-1a], the IC50 is under 100 nM.

On to `CNC[C@@H](O)COc1ccc(Cl)c(-c2nc(-c3c(C)noc3C)c(C)c(N3CCc4ccncc43)n2)c1` [Example 174-3], for which the 50% inhibitory concentration (IC50) is under 100 nM.

`CNCC(O)COc1cccc(-c2nc(-c3c(C)noc3C)cc(N3CCN(C)[C@H](C)C3)n2)c1` (stereo partly drawn) [Example 175-1a]: the IC50 is under 100 nM.

For `CNC[C@@H](O)COc1ccc(Cl)c(-c2nc(-c3c(C)noc3C)c(C)c(N3CC4(CCN(C(=O)OC)C4)C3)n2)c1` [Example 175-3], the half-maximal inhibitory concentration (IC50) was under 100 nM.

As for `CNCC(O)COc1cccc(-c2nc(-c3c(C)noc3C)c(C)c(N3CCO[C@@H](CN(C)C(=O)N(C)C)C3)n2)c1` (stereo partly drawn) [Example 176-1a], the IC50 was under 100 nM.

As to `CNC[C@@H](O)COc1ccc(Cl)c(-c2nc(-c3c(C)noc3C)c(C)c(N3CC4(CCN(C5CC5)C4)C3)n2)c1` [Example 176-3], the IC50 is under 100 nM.

As for `CNCC(O)COc1cccc(-c2nc(-c3c(C)noc3C)c(C)c(N3CCC[C@@H](NC)C3)n2)c1` (stereo partly drawn) [Example 177-1a], the IC50 is under 100 nM.

On to `CNC[C@@H](O)COc1ccc(Cl)c(-c2nc(-c3c(C)noc3C)c(C)c(N3CCC4(CN(C(=O)OC)C4)C3)n2)c1` [Example 177-3], for which the IC50 was under 100 nM.

As for `CC[C@H]1CN(c2nc(-c3cccc(OCC(O)CNC)c3)nc(-c3c(C)noc3C)c2C)CCN1C1CC1` (stereo partly drawn) [Example 178-1a], the half-inhibitory concentration (IC50) was under 100 nM.

As to `CNC[C@@H](O)COc1ccc(Cl)c(-c2nc(-c3c(C)noc3C)c(C)c(N3CCC4(C3)CN(C3CC3)C4)n2)c1` [Example 178-3], the IC50 is under 100 nM.

With `CNCC(O)COc1cccc(-c2nc(-c3c(C)noc3C)c(C)c(N3CCC4(CC3)CN(S(C)(=O)=O)C4)n2)c1` (stereo not drawn) [Example 179-1a], the IC50 is under 100 nM.

As to `CNC[C@@H](O)COc1ccc(Cl)c(-c2nc(N[C@@H]3CO[C@H](C)C3)c(C)c(-c3c(C)noc3C)n2)c1` [Example 179-3], the IC50 is under 100 nM.

For `CNC[C@@H](O)COc1ccc(Cl)c(-c2nc(N[C@@H]3CO[C@H](C)C3)c(Cl)c(-c3c(C)noc3C)n2)c1` [Example 180-3], the half-inhibitory concentration (IC50) was under 100 nM.

On to `CNCC(O)COc1cccc(-c2nc(OC3CCOCC3)c(C)c(-c3c(C)noc3C)n2)c1` (stereo not drawn) [Example 181-1a], for which the half-maximal inhibitory concentration (IC50) is under 100 nM.

On to `CNC[C@@H](O)COc1ccc(Cl)c(-c2nc(N[C@@H]3CO[C@@H](C)C3)c(Cl)c(-c3c(C)noc3C)n2)c1` [Example 181-3], for which the IC50 is under 100 nM.

In the case of `CNCC(O)COc1cccc(-c2nc(OCC3CCOCC3)c(C)c(-c3c(C)noc3C)n2)c1` (stereo not drawn) [Example 182-1a], the IC50 was under 100 nM.

In the case of `CNC[C@@H](O)COc1ccc(Cl)c(-c2nc(N[C@@H]3C[C@@H](C)O[C@@H](C)C3)c(C)c(-c3c(C)noc3C)n2)c1` [Example 182-3], the half-maximal inhibitory concentration (IC50) is under 100 nM.

For the compound `CNC[C@@H](O)COc1cccc(-c2nc(NCC3CCOCC3)c(C)c(-c3c(C)noc3C)n2)c1` [Example 183-1a], the IC50 was under 100 nM.

`CNC[C@@H](O)COc1ccc(Cl)c(-c2nc(N[C@@H]3C[C@@H](C)O[C@@H](C)C3)c(Cl)c(-c3c(C)noc3C)n2)c1` [Example 183-3]: the concentration for half-maximal inhibition (IC50) was under 100 nM.

For `CNCC(O)COc1cccc(-c2nc(NCC3CCN(C(=O)OC)CC3)c(C)c(-c3c(C)noc3C)n2)c1` (stereo not drawn) [Example 184-1a], the IC50 is under 100 nM.

As to `CNC[C@@H](O)COc1ccc(Cl)c(-c2nc(-c3c(C)noc3C)c(C)c(N3CC(F)(F)C3)n2)c1` [Example 184-3], the 50% inhibitory concentration (IC50) was under 100 nM.

With `CNCC(O)COc1cccc(-c2nc(NC3CCN(C4CC4)CC3)c(C)c(-c3c(C)noc3C)n2)c1` (stereo not drawn) [Example 185-1a], the IC50 was under 100 nM.

For `CNC[C@@H](O)COc1ccc(F)c(-c2nc(-c3c(C)noc3C)c(C)c(N3Cc4cc(Cl)cnc4C3)n2)c1` [Example 185-3], the IC50 was under 100 nM.

Consider `CNCC(O)COc1cccc(-c2nc(NC3CCN(C(=O)OC)C3)c(C)c(-c3c(C)noc3C)n2)c1` (stereo not drawn) [Example 186-1a], for which the IC50 is under 100 nM.

In the case of `CNC[C@@H](O)COc1ccc(Cl)c(-c2nc(-c3c(C)noc3C)c(C)c(N3C[C@H]4COC[C@H]4C3)n2)c1` [Example 186-3], the IC50 is under 100 nM.

Consider `CNCC(O)COc1ccc(Cl)c(-c2nc(NC3CCN(C(=O)OC)CC3)c(Cl)c(-c3c(C)noc3C)n2)c1` (stereo not drawn) [Example 187-1a], for which the half-maximal inhibitory concentration (IC50) was under 100 nM.

In the case of `CNC[C@@H](O)COc1ccc(Cl)c(-c2nc(-c3c(C)noc3C)c(C)c(N3CCOC3=O)n2)c1` [Example 187-3], the IC50 is under 100 nM.

For the compound `CNCC(O)COc1cccc(-c2nc(NC3CCN(CC(F)F)CC3)c(C)c(-c3c(C)noc3C)n2)c1` (stereo not drawn) [Example 188-1a], the IC50 was under 100 nM.

As to `CNC[C@@H](O)COc1ccc(Cl)c(-c2nc(NC3CC(F)C3)c(C)c(-c3c(C)noc3C)n2)c1` (stereo partly drawn) [Example 188-3], the IC50 is under 100 nM.

As to `CCOC(=O)N1CCC(Nc2nc(-c3cccc(OCC(O)CNC)c3)nc(-c3c(C)noc3C)c2C)CC1` (stereo not drawn) [Example 189-1a], the IC50 was under 100 nM.

On to `CNC[C@@H](O)COc1ccc(Cl)c(-c2nc(NC3CC(F)(F)C3)c(C)c(-c3c(C)noc3C)n2)c1` [Example 189-3], for which the IC50 was under 100 nM.

Consider `CCOC(=O)N1CCCC(Nc2nc(-c3cccc(OCC(O)CNC)c3)nc(-c3c(C)noc3C)c2C)C1` (stereo not drawn) [Example 190-1a], for which the half-inhibitory concentration (IC50) is under 100 nM.

As for `CNC[C@@H](O)COc1ccc(Cl)c(-c2nc(-c3c(C)noc3C)c(C)c(N3Cc4cncnc4C3)n2)c1` [Example 190-3], the IC50 was under 100 nM.

On to `CCOC(=O)N1CCC(CNc2nc(-c3cccc(OCC(O)CNC)c3)nc(-c3c(C)noc3C)c2C)CC1` (stereo not drawn) [Example 191-1a], for which the IC50 is under 100 nM.

In the case of `CCO[C@@H]1CCC[C@H]1Nc1nc(-c2cc(OC[C@H](O)CNC)ccc2F)nc(-c2c(C)noc2C)c1C` [Example 191-3], the 50% inhibitory concentration (IC50) is under 100 nM.

For the compound `CCS(=O)(=O)N1CCC(CNc2nc(-c3cccc(OCC(O)CNC)c3)nc(-c3c(C)noc3C)c2C)CC1` (stereo not drawn) [Example 192-1a], the IC50 was under 100 nM.

On to `CNC[C@@H](O)COc1ccc(Cl)c(-c2nc(-c3c(C)noc3C)c(C)c(N3Cc4nc(C)sc4C3)n2)c1` [Example 192-3], for which the IC50 was under 100 nM.

As to `CNCC(O)COc1cccc(-c2nc(NCC3CCCN(CC(F)F)C3)c(C)c(-c3c(C)noc3C)n2)c1` (stereo not drawn) [Example 193-1a], the IC50 is under 100 nM.

Consider `CCOC(=O)N1CCCC(CNc2nc(-c3cccc(OCC(O)CNC)c3)nc(-c3c(C)noc3C)c2C)C1` (stereo not drawn) [Example 194-1a], for which the IC50 was under 100 nM.

With `CNC[C@@H](O)COc1ccc(Cl)c(-c2nc(N[C@@H]3CCN(C)C[C@@H]3F)c(C)c(-c3c(C)noc3C)n2)c1` [Example 194-3], the 50% inhibitory concentration (IC50) was under 100 nM.

In the case of `CNCC(O)COc1cccc(-c2nc(NC3CCN(CC(F)F)C3)c(C)c(-c3c(C)noc3C)n2)c1` (stereo not drawn) [Example 195-1a], the IC50 is under 100 nM.

On to `CNC[C@@H](O)COc1ccc(Cl)c(-c2nc(N[C@H]3CCN(C4CC4)C[C@H]3F)c(Cl)c(-c3c(C)noc3C)n2)c1` [Example 195-3], for which the IC50 is under 100 nM.

`CCOC(=O)N1CCC(Nc2nc(-c3cccc(OCC(O)CNC)c3)nc(-c3c(C)noc3C)c2C)C1` (stereo not drawn) [Example 196-1a]: the concentration for half-maximal inhibition (IC50) was under 100 nM.
